According to ChEMBL document CHEMBL1201862, “PubChem BioAssay data set” (2004):
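In this assay, cells in 96-well plates receive the compound at five concentrations for 48 hours. Endpoints are linearly interpolated between the surrounding concentrations. At the GI50, growth is halved.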 Activity calls are given as the source filed them. Cut-off read from the data, not from the text of the source: active = GI50 up to about 1.1 µM and inactive = higher. Starred links: 1 amine or outer side, 2 acyl side, 3 side chain; linkers in the order of their positions; H or OH if unused. Positions of bridges follow the written chain, without caps; N, C: chain ends. Non-standard residues stand in square brackets, D forms with d. Residues, ends and D or L forms follow the SMILES beside them. ξ: configuration not given here. *: point of attachment. γ4hArg(2R,3R-(OH)2) = N=C(N)NCCC[C@H](N[*:1])[C@@H](O)[C@@H](O)C(=O)[*:2]; Gln(3S,4R-Me2) = C[C@H]([C@H](N)C(=O)O)[C@@H](C)C(N)=O; X50 = CC(C)C[C@H](C)[C@@H](O)[C@@H](C)C(=O)*; X51 = COC(c1ccc(O)cc1)C(N[*:1])C(=O)[*:2]; NMeQ = CN[C@@H](CCC(N)=O)C(=O)O; Thr(3ξ) = CC(O)[C@H](N)C(=O)O; NMeA = CN[C@@H](C)C(=O)O

Tests used:
Assay in all cases: NCI anticancer screen, dose series, 48 h
786-0 = tested on: 786-0
A549 = tested on: A549
EKVX = tested on: EKVX
HCT-116 = tested on: HCT-116
HT-29 = tested on: HT-29
K562 = tested on: K562
KM12 = tested on: KM12
MCF7 = tested on: MCF7
MDA-MB-231 = tested on: MDA-MB-231
MOLT-4 = tested on: MOLT-4
NCI-H226 = tested on: NCI-H226
NCI-H460 = tested on: NCI-H460
NCI-H522 = tested on: NCI-H522
OVCAR-4 = tested on: OVCAR-4
PC-3 = tested on: PC-3
SK-MEL-2 = tested on: SK-MEL-2
T47D = tested on: T47D
UACC-257 = tested on: UACC-257
UACC-62 = tested on: UACC-62

SMILES	GI50 (786-0)	GI50 (A549)	GI50 (EKVX)	GI50 (HCT-116)	GI50 (HT-29)	GI50 (K562)	GI50 (KM12)	GI50 (MCF7)	GI50 (MDA-MB-231)	GI50 (MOLT-4)	GI50 (NCI-H226)	GI50 (NCI-H460)	GI50 (NCI-H522)	GI50 (OVCAR-4)	GI50 (PC-3)	GI50 (SK-MEL-2)	GI50 (T47D)	GI50 (UACC-257)	GI50 (UACC-62)
O=c1nc2n3c4c(cccc4nc-2c(=O)[nH]1)CCC3	> 100 µM (inactive)	> 100 µM (inactive)	> 100 µM (inactive)	47.5 µM (inactive)	95.9 µM (inactive)	> 100 µM (inactive)	37.4 µM (inactive)	58.3 µM (inactive)	> 100 µM (inactive)	> 100 µM (inactive)	> 100 µM (inactive)	> 100 µM (inactive)	27.2 µM (inactive)	86.7 µM (inactive)	> 100 µM (inactive)	> 100 µM (inactive)	60.7 µM (inactive)	> 100 µM (inactive)	> 100 µM (inactive)
CC(C)NC(=O)OCc1c(COC(=O)NC(C)C)n(C)c2c1ccc1ccccc12	1.21 µM (inactive)	9.98 µM (inactive)	2.43 µM (inactive)	1.45 µM (inactive)	3.34 µM (inactive)	0.171 µM (active)	4.51 µM (inactive)	0.57 µM (active)	1.57 µM (inactive)	1.15 µM (inactive)	1.82 µM (inactive)	2.53 µM (inactive)	0.0417 µM (active)	2.75 µM (inactive)	4.43 µM (inactive)	1.78 µM (inactive)	0.247 µM (active)	1.52 µM (inactive)	1.44 µM (inactive)
CC(C)(C)OC(=O)N(O)[C@@H]1CC[C@H](n2cnc3c(N)ncnc32)C1	> 100 µM (inactive)	> 100 µM (inactive)	> 100 µM (inactive)	> 100 µM (inactive)	> 100 µM (inactive)	> 100 µM (inactive)	> 100 µM (inactive)	> 100 µM (inactive)	> 100 µM (inactive)	> 100 µM (inactive)	> 100 µM (inactive)	> 100 µM (inactive)	> 100 µM (inactive)	> 100 µM (inactive)	> 100 µM (inactive)	> 100 µM (inactive)	> 100 µM (inactive)	> 100 µM (inactive)	> 100 µM (inactive)
O=C1NC(=O)C2(CCCCCC2)N1	> 100 µM (inactive)	> 100 µM (inactive)	> 100 µM (inactive)	> 100 µM (inactive)	> 100 µM (inactive)	> 100 µM (inactive)	> 100 µM (inactive)	> 100 µM (inactive)	> 100 µM (inactive)	> 100 µM (inactive)	> 100 µM (inactive)	> 100 µM (inactive)	> 100 µM (inactive)	> 100 µM (inactive)	> 100 µM (inactive)	> 100 µM (inactive)	> 100 µM (inactive)	> 100 µM (inactive)	> 100 µM (inactive)
COC(c1ccc(O)cc1)C1NC(=O)[C@H](CCC(N)=O)N(C)C(=O)[C@H](CC(C)C)NC(=O)[C@@H](CCCN=C(N)N)NC(=O)[C@H](C(C)O)NC(=O)[C@@H](NC(=O)[C@@H](NC(=O)[C@H](O)[C@H](O)[C@H](CCCN=C(N)N)NC(=O)[C@H](C)NC(=O)[C@H](C)[C@H](O)[C@@H](C)CC(C)C)[C@@H](C)[C@@H](C)C(N)=O)[C@@H](C)OC(=O)[C@H](C)N(C)C1=O (stereo partly drawn) (X50-A[γ4hArg(2R,3R-(OH)2)][Gln(3S,4R-Me2)]T[Thr(3ξ)][dR]L[NMeQ][X51][NMeA]; ester 4-C)	0.204 µM (active)	0.141 µM (active)	0.0995 µM (active)	0.281 µM (active)	0.0904 µM (active)	0.0847 µM (active)	0.121 µM (active)	0.14 µM (active)	0.106 µM (active)	0.139 µM (active)	0.212 µM (active)	0.0604 µM (active)	0.0598 µM (active)	0.134 µM (active)	0.187 µM (active)	0.247 µM (active)	0.138 µM (active)	0.113 µM (active)	0.126 µM (active)
